Patent US10624914B2, “Methods for determining the level of hyposialylation of Angptl4” (priority 2010, dated 2020)
Entries after “also recorded” stand apart in the source; their conditions may differ.

Legend:
[1] = system: NPHS2-Angptl4 TG rats; assay: Albuminuria in NPHS2-Angptl4 TG rats given ManNAc in tap water; assay type: in vivo, rat
From the text: Transgenic rats were generated by microinjection of the digested DNA constructs into fertilized Sprague Dawley eggs (conducted at University of Michigan), implantation into pseudopregnant host Sprague Dawley females, and the resulting offsprings were genotyped by routine PCR and TaqMan genomic DNA real time PCR strategy using construct specific and control genomic prolactin primer and probe combinations. Two founder lines for podocyte specific expression were generated. Data from NPHS2-Angptl4 TG rat line 740 (5 copies of the transgene) and were stable over 4 generations, are presented. Urinary total protein was assessed using the Bradford method (Biorad laboratories, Hercules Calif. USA), and albuminuria by ELISA (Bethyl laboratories, Montgomery Tex. USA).
To make the study affordable, 7 homozygous male NPHS2-Angptl4 rats, age 3-3.5 months, with 15-25 fold higher albuminuria than wild type rats, were given ManNAc 1 mg/ml of tap water for 12 days (ManNAc phase), after which three were euthanized and the others returned to plain tap water for another 24 days (washout phase). 18 hour urine collections were done twice (Day- 12 and Day 0) before the study to confirm rising albuminuria, and periodically during the study. Another seven male NPHS2-Angptl4 rats of similar age were assessed for baseline albuminuria levels, given normal tap water (control group), three euthanized on Day 12 and others followed up to day 36, after which albuminuria was reassessed and the animals euthanized. Daily water intake of each rat was charted. At each euthanasia time point, kidneys were removed after perfusion, glomeruli isolated and processed for 2D gel electrophoresis. Albuminuria on Day 0 for each rats was denoted as 100% and all subsequent albuminuria values were expressed relative to Day 0.

[2] = system: Angptl4; assay: 2D gel electrophoresis, Western blot and densitometry of glomerular Angptl4 from ManNAc fed NPHS2-Angptl4 TG rats; assay type: in vivo, rat
From the text: The following techniques are described in prior publications: Taqman real time PCR (26), confocal imaging (7), in situ hybridization (27), promoter—reporter studies (7), immunogold EM (26), glomerular extraction and processing for Western blot (26), assessment of charge by PEI method (28); the foregoing references are hereby incorproated by reference for such teachings. For alcian blue staining, the pH of the staining solution was adjusted to 2.5 using acetic acid, and 0.1% nuclear fast red solution was used as a counterstain. Densitometry of glomerular basement membrane alcian blue stain (20 glomeruli/rat, 3 rats/group) was assessed using Image-Pro software (Media Cybernetics, Inc., Bethesda Md., USA). Densitometry of 2D gel Western blots was assessed using Gel-Pro Analyzer software (Media Cybernetics, Inc.). For in situ hybridization, the digoxigenin labeled probe for rat Angptl4 included bp 1 to 548 of the ORF.
To study the effect of manNAc on the sialylation of recombinant protein, the Angptl4-HEK293 stable or pcDNA3.1-HEK293 control stable cell lines were grown to confluence in 15 cm dishes, washed twice with warm PBS, then incubated with serum free DMEM without phenol red with or without 25 mM manNAc for 48 hours, after which the media was harvested, concentrated, protein assay conducted, and loaded on the 2D gels (200 μg/gel). […]
To make the study affordable, 7 homozygous male NPHS2-Angptl4 rats, age 3-3.5 months, with 15-25 fold higher albuminuria than wild type rats, were given ManNAc 1 mg/ml of tap water for 12 days (ManNAc phase), after which three were euthanized and the others returned to plain tap water for another 24 days (washout phase). […] Another seven male NPHS2-Angptl4 rats of similar age were assessed for baseline albuminuria levels, given normal tap water (control group), three euthanized on Day 12 and others followed up to day 36, after which albuminuria was reassessed and the animals euthanized. […]

[3] = system: Angptl4; assay: Sialylation of recombinant Angptl4 in Angptl4-HEK293 stable cell line incubated with ManNAc; assay type: cell-based, rat; conditions: ManNAc 25 mM, 48 hours
Description: To study the effect of manNAc on the sialylation of recombinant protein, the Angptl4-HEK293 stable or pcDNA3.1-HEK293 control stable cell lines were grown to confluence in 15 cm dishes, washed twice with warm PBS, then incubated with serum free DMEM without phenol red with or without 25 mM manNAc for 48 hours, after which the media was harvested, concentrated, protein assay conducted, and loaded on the 2D gels (200 μg/gel). Western blots of glomeruli or recombinant protein were conducted using rabbit anti-Angptl4 (full length) antibody, preimmune rabbit serum and lectins SNA I-HRP and MAA-HRP (E-Y laboratories, San Mateo Calif. USA).

[4] = system: rats with puromycin aminonucleoside nephrosis (PAN model); assay: Nephrotic syndrome parameters in puromycin aminonucleoside nephrosis (PAN model) rats treated with ManNAc; assay type: in vivo, rat; conditions: ManNAc 80 mg/Kg body weight in tap water from Day 4, Day 6
Description: FIGS. 7A-D show improvement in nephrotic syndrome parameters in ManNAc treated rats with puromycin aminonucleoside nephrosis (PAN model). In FIGS. 7A-7D, rats (n=5 rats/group) received a single intravenous injection of puromycin aminonucleoside (10 mg/100 gm), and were treated with ManNAC 80 mg/Kg body weight in tap water starting on Day 4, which coincides with the onset of proteinuria.
Rats (n=5 rats/group) received a single intravenous injection of puromycin aminonucleoside (10 mg/100 gm), and were treated with ManNAC 80 mg/Kg body weight in tap water starting on Day 4, which coincides with the onset of proteinuria. Data from Day 6 is shown.

[5] = system: Zucker Diabetic Fatty rats; assay: Proteinuria in Zucker Diabetic Fatty rats treated with ManNAc; assay type: in vivo, rat; conditions: 13 week old male rats, ManNAc in tap water, 70 mg/Kg up to 20 days and 140 mg/Kg, vs plain tap water
Description: 13 week old male Zucker Diabetic Fatty rats were treated with ManNAc in tap water or with plain tap water (n=4 rats/group) at 70 and 140 mg/Kg.
These high pI hyposialylated forms of Angptl4 are sensitive to sialic acid precursor therapy, including ManNAc and ManNAc derivatives. […] In FIG. 8C, 13 week old male Zucker diabetic fatty rats were treated with ManNAc in tap water or with plain tap water (n=4 rats/group).

[6] = system: mouse Angptl4 promoter; assay: Angptl4 promoter-reporter (SEAP) study in HEK 293 cells and GECs; assay type: cell-based; conditions: mifepristone 2×10^−5 M, glucocorticoid receptor antagonist
Description: We conducted 5′ RACE and primer extension analysis using mouse kidney mRNA and confirmed the same transcriptional start site in the kidney. Next, a 2 Kb fragment upstream of the transcriptional start site was clone using BAC clone RP23-27D5 as a template into pSEAP2 basic. A 2 Kb human Angptl4 promoter constructs were similarly generated using BAC clone RP11-886P16.
Incubation of HEK 293 cells and GECs transfected with Angptl4-pSEAP or empty vector promoter—reporter constructs for mouse Angptl4 with dexamethasone (10^−3 M) show a decline in SEAP activity at 48 hours. This decline in activity is mediated via the glucocorticoid receptor, since it is reversed by the receptor antagonist mifepristone (2×10^−5 M). Glucocorticoid sensitivity of the human promoter was also assessed (dexamethasone 10^−4 M). All transfection reactions were normalized using the pβgal vector (Clontech, Mountain View Calif. USA).

SMILES	18 hour albuminuria, nadir on Day 12 ([1]; 1 mg/ml ManNAc in tap water for 12 days, Day 0 = 100%)	albuminuria (effect in words) ([1]; ManNAc 1 mg/ml in tap water for 12 days)	reduction in albuminuria compared to baseline ([1]; ManNAc 1 mg/ml in tap water, over a 12 day period)	albuminuria after washout ([1]; after 12 days of washout following 12 days ManNAc 1 mg/ml)	reduction in albuminuria maintained ([1]; pilot studies, heavily albuminuric NPHS2-Angptl4 rats, ManNAc 8 mg/ml tap water)	albuminuria (effect in words) ([1]; pilot studies, heavily albuminuric rats, increasing doses of ManNAc (1 to 8 mg/ml))	percentage of neutral pI forms of Angptl4 (effect in words) ([2]; Day 12, ManNAc fed rats vs control TG rats)	sialylation of glomerular Angptl4 (reactivity with lectin SNA I) ([2]; Day 12, ManNAc treated rats)	neutral pI Angptl4 fraction (densitometry of Western blots, glomerular Angptl4) ([2]; rats euthanized on Day 12, ManNAc 1 mg/ml) [%]	reactivity of Angptl4 to sialic acid binding lectin MAA [3]	sialylation of Angptl4 [3]	electrophoretic migration (pI) of secreted Angptl4 ([3]; serum free, concentrated supernatant)	hypercholesterolemia (cholesterol) [4]	hypertriglyceridemia (triglycerides) [4]	plasma albumin levels [4]	proteinuria ([4]; vs control PAN rats)	proteinuria [5]	dexamethasone-induced decline in SEAP activity [6]
CC(=O)N[C@@H]1C(O)O[C@H](CO)[C@@H](O)[C@@H]1O (stereo partly drawn) [ManNAc, N-acetylmannosamine]	59.4±3.3 % of baseline	reduced albuminuria; also recorded: significant reduction	over 40%	returned towards baseline values	20-30%	reduced albuminuria	significant increase	increased sialylation	72.9 ± 1.4	increased reactivity	increased sialylation	shift of the protein towards neutral pI; also recorded: shift from high pI forms	significant reduction	significant reduction	significant improvement	significant reduction	Significant reduction	
CC#C[C@]1(O)CC[C@H]2[C@@H]3CCC4=CC(=O)CCC4=C3[C@@H](c3ccc(N(C)C)cc3)C[C@@]21C [mifepristone]																		reversed
